These results are taken from paper PMC4671257, “Plasmodium falciparum SERA5 plays a non-enzymatic role in the malarial asexual blood-stage lifecycle” (Molecular Microbiology, 2015).

This experiment has as its target SERA5 (rSERA5-C) (Plasmodium falciparum, UniProt Q9TY95, S596C). The experiment in a line: fluorogenic peptide (Abz-LAQAVRSSSR-Dpa) cleavage assay with purified rSERA5-C, progress curves. The format is biochemical.

For `CC(C)C[C@H](NC(=O)[C@H]1O[C@@H]1C(=O)O)C(=O)NCCCCN=C(N)N` [E64, trans-epoxysuccinyl-L-leucylamido(4-guanidino)butane], the half-maximal inhibitory concentration (IC50) was 2900 ± 300 nM.
